Measured values taken from ChEMBL document CHEMBL1201861, “Genomics of Drug Sensitity in Cancer screening data, Wellcome Trust Sanger Institute”.

Experiments:
[1] = test system: IST-SL2; assay: cells; assay type: functional, cell-based, Homo sapiens; details: Homo sapiens, IST-SL2;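 also: growth inhibition of human IST-SL2 cells, read out by a cell viability assay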
Description: SANGER: Inhibition of human IST-SL2 cell growth in a cell viability assay.

[2] = test system: Kasumi 1; assay: cells; assay type: functional, cell-based, Homo sapiens; details: Homo sapiens, Kasumi 1;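 also: growth inhibition of human Kasumi-1 cells, read out by a cell viability assay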
Description: SANGER: Inhibition of human KASUMI-1 cell growth in a cell viability assay.

[3] = test system: MC-CAR; assay: cells; assay type: functional, cell-based, Homo sapiens; details: Homo sapiens, MC-CAR;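 also: growth inhibition of the human MC-CAR cell line, read out by a cell viability assay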
Description: SANGER: Inhibition of human MC-CAR cell growth in a cell viability assay.

[4] = test system: NCCIT; assay: SANGER: Inhibition of human NCCIT cell growth in a cell viability assay.; assay type: functional, cell-based; details: Homo sapiens, NCCIT
[5] = test system: SNU-16; assay: cells; assay type: functional, cell-based, Homo sapiens; details: Homo sapiens, SNU-16;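 also: growth inhibition of human SNU-16 cells, determined with a cell viability readout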
Description: SANGER: Inhibition of human NCI-SNU-16 cell growth in a cell viability assay.

[6] = test system: SNU-C1; assay: cells; assay type: functional, cell-based, Homo sapiens; details: Homo sapiens, SNU-C1;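 also: growth inhibition of SNU-C1 human cells, read out by a cell viability assay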
Description: SANGER: Inhibition of human SNU-C1 cell growth in a cell viability assay.

[7] = test system: THP-1; assay: cells; assay type: functional, cell-based, Homo sapiens; details: Homo sapiens, THP-1;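 also: growth inhibition of THP-1 cells, read out via a cell viability assay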
Description: SANGER: Inhibition of human THP-1 cell growth in a cell viability assay.

[8] = test system: TUR; assay: cells; assay type: functional, cell-based, Homo sapiens; details: Homo sapiens, TUR;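 also: growth inhibition of human TUR cells, read out with a cell viability assay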
Description: SANGER: Inhibition of human TUR cell growth in a cell viability assay.

[9] = test system: U-698-M; assay: cells; assay type: functional, cell-based, Homo sapiens; details: Homo sapiens, U-698-M
Description: SANGER: Inhibition of human U-698-M cell growth in a cell viability assay.

[10] = test system: CESS; assay: SANGER: Inhibition of human CESS cell growth in a cell viability assay.; assay type: functional, cell-based; details: Homo sapiens, CESS
[11] = test system: NB1; assay: cells; assay type: functional, cell-based, Homo sapiens; details: Homo sapiens, NB1;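 also: reduction of NB1 cell proliferation, read out with a viability assay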
Description: SANGER: Inhibition of human NB1 cell growth in a cell viability assay.

[12] = test system: NCI-H889; assay: cells; assay type: functional, cell-based, Homo sapiens; details: Homo sapiens, NCI-H889;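 also: cell growth inhibition of the cell line, read out with a viability assay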
Description: SANGER: Inhibition of human NCI-H889 cell growth in a cell viability assay.

Structure (SMILES)	IC50 [1]	IC50 [2]	IC50 [3]	IC50 [4]	IC50 [5]	IC50 [6]	IC50 [7]	IC50 [8]	IC50 [9]	IC50 [10]	IC50 [11]	IC50 [12]
C#Cc1cccc(Nc2ncnc3cc(OCCOC)c(OCCOC)cc23)c1 [ERLOTINIB]	> 2 µM	> 2 µM	> 2 µM	> 2 µM	> 2 µM	> 2 µM	> 2 µM	> 2 µM	> 2 µM	> 2 µM		
COc1cc(-c2nn([C@H]3CC[C@H](N4CCN(C(C)=O)CC4)CC3)c3ncnc(N)c23)ccc1NC(=O)c1cc2ccccc2n1C	1.16 µM	> 5.12 µM	> 5.12 µM	> 5.12 µM	> 5.12 µM	> 5.12 µM	> 5.12 µM	> 5.12 µM	> 5.12 µM	> 5.12 µM	> 5.12 µM	> 5.12 µM
CC(=O)O[C@H]1C(=O)[C@@]2(C)[C@H]([C@H](OC(=O)c3ccccc3)[C@]3(O)C[C@H](OC(=O)[C@H](O)[C@@H](NC(=O)c4ccccc4)c4ccccc4)C(C)=C1C3(C)C)[C@]1(OC(C)=O)CO[C@@H]1C[C@@H]2O [PACLITAXEL]	0.0427 µM	> 0.102 µM	0.0233 µM	0.0177 µM	0.0101 µM	> 0.102 µM	> 0.102 µM	> 0.102 µM	> 0.102 µM	0.00737 µM	0.0269 µM	0.0559 µM
CCN(CC)CCNC(=O)c1c(C)[nH]c(/C=C2\C(=O)Nc3ccc(F)cc32)c1C [SUNITINIB]	6.13 µM	> 8 µM	> 8 µM	> 8 µM	1.46 µM	> 8 µM	> 8 µM	> 8 µM	> 8 µM	7.1 µM	1.96 µM	> 8 µM
COc1cc(N2CCN(C)CC2)ccc1Nc1ncc2c(n1)N(C)c1ccccc1C(=O)N2C	3.82 µM	> 8 µM	> 8 µM	4.15 µM	> 8 µM	> 8 µM	> 8 µM	> 8 µM	> 8 µM	7.75 µM	> 8 µM	> 8 µM
COc1cc2ncn(-c3cc(OCc4ccccc4S(C)(=O)=O)c(C#N)s3)c2cc1OC [GSK-319347A]	> 5 µM	> 5 µM	> 5 µM	> 5 µM	> 5 µM	> 5 µM	> 5 µM	> 5 µM	> 5 µM	> 5 µM	> 5 µM	> 5 µM
Cc1ccc(-c2c(C(=O)CCl)n(CCCO)c3ncnc(N)c23)cc1	> 4 µM	> 4 µM	> 4 µM	> 4 µM	> 4 µM	> 4 µM	> 4 µM	> 4 µM	> 4 µM	> 4 µM	> 4 µM	> 4 µM
OCCCNc1cc(-c2ccnc(Nc3cccc(Cl)c3)n2)ccn1	0.0249 µM	> 0.256 µM	0.121 µM	0.0485 µM	0.136 µM	> 0.256 µM	> 0.256 µM	> 0.256 µM	> 0.256 µM	0.0401 µM	0.0843 µM	> 0.256 µM
CC[C@H](CO)Nc1nc(NCc2ccccc2)c2ncn(C(C)C)c2n1 [SELICICLIB]	> 16 µM	> 16 µM	> 16 µM	7.55 µM	> 16 µM	> 16 µM	> 16 µM	> 16 µM	> 16 µM	> 16 µM	12.3 µM	> 16 µM
COc1cc2ncn(-c3cc(OCc4ccccc4C(F)(F)F)c(C(N)=O)s3)c2cc1OC [GW843682X]	0.112 µM	> 0.256 µM	0.0761 µM	0.0599 µM	0.0205 µM	> 0.256 µM	> 0.256 µM	> 0.256 µM	> 0.256 µM	0.0132 µM	0.0351 µM	0.0924 µM
